Measurements as given in US20260014173A1, “Nutritional composition for stroke” (N.V. Nutricia, priority 2022, published 2026).

Columns and labels:
[1] = tested on: PC12 pheochromocytoma cells; assay: Neurite outgrowth in in vitro PC12 neuronal cell model (NGF, no hypoxia), Examples 5 and 6; format: cell-based; conditions: total concentration of 20 μM choline from chol-CI, PC or both, control set at 100%
Procedure: The effects of nutrient supplementation on neurite outgrowth parameters in PC12 pheochromocytoma cells was also assessed.
PC12 pheochromocytoma cells were grown in DMEM (Gibco), supplemented with 10% fetal bovine serum (FBS), penicillin (100 units/ml), and streptomycin (100 μg/ml) (Gibco), under a humidified atmosphere with 95% air and 5% CO2 at 37° C. Cells were seeded in collagen (0.01 mg/ml) coated 96 well plates at a density of 5000 cells/well and after 24 hours supplemented with medium containing 20 ng/ml nerve growth factor (NGF) with or without coenzyme Q10 (1 μM), vitamin D3 ((0.25 μM), vitamin B2 (0.5 μM), DHA (6.7 μM), a source of choline (20 μM phosphatidylcholine, PC) or a mixture thereof.
In the PC12 experiments the cells were not exposed to hypoxia.
Docosahexaenoic acid (DHA) was resuspended in absolute ethanol and diluted 5 times in fetal bovine serum. All compounds were purchased from Sigma (Zwijndrecht, The Netherlands).
Supplementation of cells was performed in 6-fold in 96 wells plates. These conditions were compared to non-supplemented cells. After supplementation for 48 hours with these combinations, cells were stained using Calcein-AM stain (2 ng/μl) and the nuclei were counterstained using Hoechst stain (0.6 μg/ml), in 100 μl culture medium per well and incubated for 20 min at 37° C. Subsequently, FITC and DAPI images (9 images per well for 96 wells plate) were taken using an ImageXpress high content imaging system. Neurite length was quantified using the neurite outgrowth module in MetaXpress.
Nutrients were supplemented alone (100% chol-CI or 100% PC) and in a ratio of 60:40 and 40:60 of chol-CI to PC. Supplementation of cells was performed in 6-fold in 96 wells plates at a total concentration of 20 μM choline, derived from chol-CI, from PC, or from both. The neurite outgrowth in these conditions were compared to non-supplemented PC12 cells.

[2] = tested on: Mouse primary cortical neurons (E14); assay: Neurite outgrowth after hypoxia (oxygen glucose deprivation), cortical neuronal cultures, Example 3; format: cell-based; conditions: OGD 3.5 hrs; vitamin D3 30 nM, co-enzyme Q10 3 μM, vitamin B2 30 nM, alone or combined; supplemented immediately after OGD for 24 hrs; control set at 100%
Procedure: Mouse primary cortical neurons (E14) were seeded onto 96-well plates coated with poly-D-lysine. Cells (20.000 cells/well) were cultured in modified Neurobasal medium (containing B27, Pen/Strep, and GlutaMAX). Cell cultures were incubated at 37° C. in 5% CO2 and medium was replaced every 2-3 days. At day 2 of in vitro culturing, cells underwent oxygen glucose deprivation (OGD) for 3.5 hrs. In order to induce glucose deprivation, modified Neurobasal medium was replaced with an equivalent volume of HBSS. For hypoxia, cells were placed in a humidity-controlled incubator (Whitley H35 Hypoxystation) set to 0.5% O2, 94.5% N2 and 5% CO2 at 37° C. for 3.5 hrs. After the hypoxic incubation period, HBSS was removed and replaced with modified Neurobasal medium, and plates returned to normoxic conditions and incubated at 37° C. in 5% CO2 for an additional 24 hrs. […] Nutrients were supplemented either alone, in combination of two, or in combination of three, starting immediately after the OGD and lasting for another 24 hrs. Every condition was tested in triplicate. […] At the end of the experiment, plates were fixed PFA for 5 min at room temperature. Then, cells were permeabilized and blocked using PBS containing 10% normal goat serum, 0.1% sodium azide and 0.2% Triton X-100. Cells were stained overnight with a monoclonal anti-beta-tubulin III antibody (Sigma Aldrich, T8578). Next, cells were stained with the secondary antibody Alexa Fluor 488 Goat anti-Mouse IgG (H+L) (Invitrogen A11001 Fisher, 10256302). Nuclei were stained with Hoechst 33342 (Thermofisher, H3570). Images were taken at a magnification of 20× in 12 fields of view using In Cell Analyser 2000.

Compound	neurite outgrowth compared to unsupplemented control PC12 cells [1]	neurite outgrowth after hypoxia relative to control [2]	neurite outgrowth compared to unsupplemented control PC12 cells ([1]; listed as PC)
C[N+](C)(C)CCO.[Cl-] [100% chol-CI, choline chloride]	improved neurite outgrowth	–	–
COC1=C(OC)C(=O)C(C/C=C(\C)CC/C=C(\C)CC/C=C(\C)CC/C=C(\C)CC/C=C(\C)CC/C=C(\C)CC/C=C(\C)CC/C=C(\C)CC/C=C(\C)CCC=C(C)C)=C(C)C1=O [co-enzyme Q10, 2,3 dimethoxy-5 methyl-6-decaprenyl benzoquinone]	–	did not affect neurite outgrowth	–
Cc1cc2nc3c(=O)[nH]c(=O)nc-3n(C[C@H](O)[C@H](O)[C@H](O)CO)c2cc1C [vitamin B2, riboflavin]	–	did not affect neurite outgrowth	–
C=C1CC[C@H](O)C/C1=C/C=C1\CCC[C@]2(C)[C@@H]([C@H](C)CCCC(C)C)CC[C@@H]12 [vitamin D3, cholecalciferol]	–	did not affect neurite outgrowth	–
phosphatidylcholine [100% PC]	increases neurite outgrowth slightly more than supplementation with 100% chol-CI	–	slightly better effect on neurite outgrowth than choline chloride
